Experiments:
[1] = tested on: MCF7 cells; test: MCF7 proliferation in response to E2 or insulin; assay type: cell-based; settings: SERMs and SERDs 10^-6 M, insulin 2×10^-9 M
Protocol: The expression of ESR1 target genes responsive to (FIG. 10A) agonists, (FIG. 10B) primarily SERMs, or (FIG. 10C) SERMs and agonists was analyzed as in FIG. 5. Relative changes of these and additional target genes designed to evaluate dose dependent response to RAD1901 are presented in FIG. 11. Significant target gene regulation (*p<0.05) as compared to the vehicle control was detected by 2 way ANOVA followed by Fisher's LSD (Graphpad Prism 6). […] Triplicate wells of SKBR3 cells were transfected with plasmids expressing ESR1 fused to VP16 together with Gal4DBD alone (control) or Gal4DBD fused to ESR1 interacting peptides noted on the horizontal axis. Cells were then treated with the indicated ESR1 ligands (10^−7 M unless otherwise indicated). Interaction of ESR1 with the Gal4DBD peptide constructs was detected through activation of a Gal4-responsive luciferase reporter construct and was normalized to detected β-galactosidase activity expressed in a constitutive manner using a second vector. Normalized response was expressed as fold increase over the detected level of interaction between Gal4DBD alone and ESR1-VP16 in the absence of ligand (Veh). For FIG. 10E, the effect of SERMs and SERDs (10^−6 M) on the proliferation of MCF7 cells in response to E2 (10^−9 M) or insulin (2×10^−9 M) was evaluated as in FIG. 5. Statistically similar treatments (2-way ANOVA followed by Bonferroni comparison) are indicated by letters. […] The expression of ESR1 target genes responsive to (A) agonists, (B) primarily SERMs, or (C) SERMs and agonists was analyzed using RT qPCR following RNA isolation. mRNA expression was normalized (ΔΔCT analysis) to the similarly detected 36B4 housekeeping. The profiles presented in dendogram format were analyzed with the Ward hierarchical clustering algorithm (JMP 11) using standardized data.

[2] = tested on: LTED MCF7 cells; test: LTED MCF7 cell proliferation assay; assay type: cell-based; settings: model of aromatase resistance, 10^-11-10^-6 M, 8 day assay
[3] = target: T1, ESR1 (Homo sapiens, UniProt P03372); test: ESR1 expression in LTED MCF7 cells (immunoblot); assay type: cell-based; settings: 24 hours, SERDs 10^-6 M
T1 sequence (P03372 1-595): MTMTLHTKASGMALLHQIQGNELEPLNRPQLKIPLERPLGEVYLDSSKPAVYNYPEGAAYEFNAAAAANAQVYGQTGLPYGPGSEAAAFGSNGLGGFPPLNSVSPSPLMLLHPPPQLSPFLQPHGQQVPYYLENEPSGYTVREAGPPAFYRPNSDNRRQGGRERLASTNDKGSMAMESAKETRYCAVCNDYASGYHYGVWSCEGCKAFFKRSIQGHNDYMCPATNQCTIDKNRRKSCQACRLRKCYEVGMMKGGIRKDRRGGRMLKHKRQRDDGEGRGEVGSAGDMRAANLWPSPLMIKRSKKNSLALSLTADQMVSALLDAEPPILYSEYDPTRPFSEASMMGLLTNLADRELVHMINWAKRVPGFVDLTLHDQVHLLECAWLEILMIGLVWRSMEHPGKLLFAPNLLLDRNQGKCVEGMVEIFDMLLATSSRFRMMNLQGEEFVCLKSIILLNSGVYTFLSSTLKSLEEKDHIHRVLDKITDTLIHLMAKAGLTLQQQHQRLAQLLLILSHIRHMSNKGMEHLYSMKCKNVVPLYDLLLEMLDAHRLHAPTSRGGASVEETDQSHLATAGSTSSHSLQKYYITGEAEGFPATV
Protocol: MCF7 and SKBR3 cell lines were maintained in DMEM/F12 or RPMI media (Invitrogen), respectively, supplemented with 8% fetal bovine serum (FBS, Gemini), non-essential amino acids (Invitrogen), and sodium pyruvate (Invitrogen). Unless otherwise indicated, cells were plated for experiments in media lacking phenol red and supplemented with 8% charcoal stripped FBS (CFS, Gemini). LTED MCF7 cells were maintained and plated for experiments in phenol red free DMEM/F12 media supplemented with 8% CFS that had been charcoal stripped twice. 48 hours after plating, cells were treated with ESR1 ligands as indicated, and were harvested for immunoblot or real time quantitative PCR analysis 24 hours after treatment.
Expression of ESR1 and loading control cytokeratin 18 (CK18—FIG. 7A) in whole cell extracts were detected by immunoblot (top). ESR1 levels relative to CK18 were quantitated by densitometry using Adobe Photoshop (bottom). […] ESR1 expression was detected as in FIG. 6A. For FIGS. 6C-6D, LTED MCF7 cells were plated in phenol red free media supplemented with FBS that was stripped of growth factors twice using charcoal. For FIG. 6C, after 48 hours, cells were treated for 24 hours with E2 (10^−7 M) or SERDs (10^−6 M) and ESR1 was analyzed as in FIG. 6A.

[4] = tested on: MCF7 xenograft tumors; test: MCF7 xenograft tumor study in estrogen-treated ovariectomized nu/nu mice; assay type: in vivo; settings: 20 mg/kg sc daily
Protocol: A total of 90 female Nu/Nu mice were ovariectomized and implanted subcutaneous simultaneously with an estrogen pellet (Innovative Research of America) releasing 0.72 mg estradiol (E2) over 60 days. 2 days later an approximately 6 mm^3 fragment of an MCF7 xenograft tumor (isolated from a recently sacrificed estrogen treated nu/nu mouse) was inserted subcutaneous into the axial mammary gland. Tumor growth (by caliper measurement) and animal body weight were monitored 3× weekly until tumor volume reached ˜0.2 cm^3. […] Treatments were formulated in sterile corn oil and were administered daily by subcutaneous injection. After 3 weeks of treatments, animals were euthanized and serum and tissues saved for analysis. FIG. 1B depicts tumor volume analyzed using non-linear curve fit and exponential growth calculation (Graphpad Prism), followed by two-way ANOVA and Bonferroni analysis.
Xenograft tumor analysis: Estrogen-stimulated MCF7 tumors were initiated in the axial mammary gland of 6-week old estrogen-treated (0.72 mg/60 days pellet sc, Innovative Research of America) ovariectomized female NU/NU mice (in-house colony) by serial transfer and were measured as described (Wardell et al., (2013) Clin Cancer Res 19 (9):2420-2431). […] Animal tissues were processed and analyzed as described (Wardell et al., (2013) Clin Cancer Res 19 (9):2420-2431).
The ability of RAD1901 (FIG. 5A) to modulate the […] estradiol (E2) dependent transcriptional activity of the human estrogen receptor alpha (ESR1) and human estrogen receptor beta (ESR2) was assessed in transiently transfected SKBR3 cells using a synthetic reporter gene. […] DNA content as assessed by fluorescence was measured as a surrogate for cell proliferation. The relative increase in DNA fluorescence was calculated by normalizing to baseline values detected in a duplicate plate of cells that was harvested on day 1 prior to the initial treatment. […] For FIG. 5F, expression of ESR1 target genes in tumors was analyzed essentially as in (C).

4-hydroxytamoxifen [4OHT] was tested. Which insulin-stimulated proliferation [1] did it give?
Its insulin-stimulated proliferation is “without effect”.

What does the source list for C[C@]12CC[C@@H]3c4ccc(O)cc4C[C@@H](CCCCCCCCC[S+]([O-])CCCC(F)(F)C(F)(F)F)[C@H]3[C@@H]1CC[C@@H]2O (stereo partly shown) [ICI, ICI 182,780]?
cell proliferation [2]: inhibited cell proliferation; ESR1 expression levels [3]: downregulated ESR1 expression; insulin-stimulated proliferation [1]: efficiently inhibited

How did the insulin-stimulated proliferation [1] turn out when O=C(c1ccc(OCCN2CCCCC2)cc1)c1c(-c2ccc(O)cc2)sc2cc(O)ccc12 [Ralox, raloxifene] was run?
Its insulin-stimulated proliferation is “without effect”.

Which results are given for CC/C(=C(\c1ccccc1)c1ccc(OCCN(C)C)cc1)c1ccccc1 [tamoxifen, reference compound]?
cell proliferation [2]: minimally effective; expression of ESR1-target genes PGR and FHL1 in treated tumors [4]: suppress the expression of the ESR1-target genes PGR and FHL1 to the same degree

Source: patent US10420734B2, “Method of treating cancer using selective estrogen receptor modulators” (Duke University, priority 2014, dated 2019)
